Columns and labels:
[1] = test system: ICR mice; test: acetic acid writhing pain model in mice; assay type: in vivo; conditions: 10 mg/kg intragastric, acetic acid 1 h after administration
Procedure: Male ICR mice, weighed 22-25 g, were fasted but allowed to drink water freely for 2 h before administration. All ICR mice were weighed and grouped randomly, and the number of animals in each group was greater than 10. […] […] The drug was administrated intragastrically based on the weight of mice. 1.5% acetic acid solution (0.1 ml/10 g) was injected intraperitoneally 1 hour after administration, and the frequency of visceral pain in each group of mice within 30 min was observed. When concave abdomen, stretched trunk and hind paw, and high buttocks appeared, one number point was recorded. Finally, the number of appearance of the above phenomenon was counted within 30 minutes.

[2] = test system: C57 mice; test: hot plate pain model in mice; assay type: in vivo; conditions: 10 mg/kg intraperitoneal, hot plate 55° C.
Procedure: SPF-grade C57 male mice were placed at hot plate with constant 55±0.1° C. […] If the pain reaction of mice was observed, the mice were taken out immediately to prevent mice from scalding. […] Appropriate amount of test compounds were added into required volume of physiological saline and fully suspended, and the concentration of the drug compound was prepared as 1 mg/ml. The standard volume of administration to mice was 10 ml/kg (or 0.1 ml/10 g). The administration mode was intraperitoneal administration. […] The administration volume was 10 ml/kg. […] Hot plate observation indicator is the time latency of mice on the hot plate at 55±0.1° C. Measurement and recording were conducted at 3 h before administration and 15 min, 30 min, and 60 min after administration. Maximum possible effect (MPE) % was used to evaluate analgesic effect of each compound, i.e., MPE %=[(Post drug latency-baseline latency)/(30-baseline latency)]×100. MPE % at different time points was recorded. The higher the value of MPE % was, the stronger the analgesic effect of the compound was.

[3] = test system: SD rats; test: SNL model in rats, mechanical hyperalgesia test; assay type: in vivo; conditions: 100 mg/kg by gavage, 1 hour after administration
Procedure: Male SPF grade SD rats, weighed 150-180 g, were selected. Aseptic operation during surgery was performed. The animals were anesthetized with sodium pentobarbital (50 mg/kg, intraperitoneal injection). The surgical area of animal waist was shaved and the skin was disinfected three times with iodophor and 70% ethanol. After the skin was dried, the operation was started. Surgical knife was used to make a longitudinal incision at the back of the sacrum of the animal waist to expose the left paraspinal muscles, and distractor was used to separate muscle tissue to expose the spine. The left spinal nerves L5 and L6 were separated and ligated with a 6-0 silk thread, and the wound was sutured. […]
The animals were weighed to calculate the dosage. […] During the test, rapid paw withdrawal of animal was recorded as pain response. When the test fiber was removed from animal skin, the paw withdrawal of animal was also recorded as pain response. If animal moved or walked, the pain response was not recorded and the test was repeated. […]
Mechanical hyperalgesia was expressed as paw withdrawal threshold (PWT) in rat behavioral test, which was calculated with the following formula: 50% response threshold (g)=(10^(Xf+k))/10,000; • Xf=the final test fiber value used in the test; • k=table value; • =mean difference

[4] = target: T1, TRPA1 (Mus musculus, UniProt Q8BLA8); test: IonWorks Barracuda (IWB) automated patch clamp detection of TRPA1 inhibitory activity; assay type: cell-based; conditions: HEK293 cells stably expressing TRPA1, AITC-induced current
T1 construct: expressed in transfected cells
T1 sequence (Q8BLA8 whole entry): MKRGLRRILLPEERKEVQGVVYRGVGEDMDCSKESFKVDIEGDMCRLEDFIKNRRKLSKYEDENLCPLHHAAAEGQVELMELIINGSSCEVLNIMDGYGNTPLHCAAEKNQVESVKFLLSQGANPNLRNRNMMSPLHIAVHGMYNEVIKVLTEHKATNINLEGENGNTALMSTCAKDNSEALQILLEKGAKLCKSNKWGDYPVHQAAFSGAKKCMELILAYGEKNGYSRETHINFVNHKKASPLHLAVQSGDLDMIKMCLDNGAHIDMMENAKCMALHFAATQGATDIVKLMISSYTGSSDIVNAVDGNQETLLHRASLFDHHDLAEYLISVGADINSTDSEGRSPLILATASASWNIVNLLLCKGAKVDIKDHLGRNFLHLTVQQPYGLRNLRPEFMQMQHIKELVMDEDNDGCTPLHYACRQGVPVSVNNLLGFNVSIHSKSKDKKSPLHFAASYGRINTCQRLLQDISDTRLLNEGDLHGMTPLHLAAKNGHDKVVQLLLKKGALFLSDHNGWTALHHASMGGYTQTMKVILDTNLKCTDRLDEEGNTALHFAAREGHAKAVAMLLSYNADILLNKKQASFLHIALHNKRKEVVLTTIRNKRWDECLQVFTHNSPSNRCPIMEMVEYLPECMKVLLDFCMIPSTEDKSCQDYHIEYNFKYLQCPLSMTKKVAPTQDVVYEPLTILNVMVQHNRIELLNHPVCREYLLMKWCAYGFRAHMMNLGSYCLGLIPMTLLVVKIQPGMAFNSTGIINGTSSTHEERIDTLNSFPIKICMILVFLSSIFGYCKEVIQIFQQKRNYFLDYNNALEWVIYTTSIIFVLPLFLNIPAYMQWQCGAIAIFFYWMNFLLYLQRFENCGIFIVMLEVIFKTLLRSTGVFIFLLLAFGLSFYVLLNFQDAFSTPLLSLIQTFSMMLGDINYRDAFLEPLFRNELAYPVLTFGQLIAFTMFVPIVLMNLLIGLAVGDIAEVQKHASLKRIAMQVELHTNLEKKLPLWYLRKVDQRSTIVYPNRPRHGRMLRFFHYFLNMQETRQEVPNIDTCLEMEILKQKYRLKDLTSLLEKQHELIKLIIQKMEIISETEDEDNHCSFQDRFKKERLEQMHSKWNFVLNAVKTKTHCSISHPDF
Procedure: IonWorks Barracuda (IWB) automated patch clamp detection was used as test method: HEK293 cells stably expressing TRPA1 were placed in the T175 culture flask with DMEM medium containing 15 μg/mL Blasticidin S HCl, 200 μg/mL Hygromycin B and 10% FBS, and cultured in an incubator in 5% CO2 at 37° C. When the cell density reached about 80%, the culture medium was removed, the residue was rinsed once with phosphate buffered saline (PBS) without calcium and magnesium. 3 mL of Trypsin was added to digest for 2 min, 7 mL of culture medium was added to terminate the digestion. The cells were collected to 15 mL centrifuge tube and centrifuged at 800 rpm for 3 min. After the supernatant was removed, the cells were added to appropriate volume of extracellular fluid for re-suspending, and the cell density was controlled at 2-3×10^6/mL for IWB experiment. The formulation of extracellular fluid (in mM) was 140 NaCl, 5 KCl, 1 MgCl2, 10 HEPES, 0.5 EGTA, 10 Glucose (pH 7.4); the formulation of intracellular fluid (in mM) was 140 CsCl, 10 HEPES, 5 EGTA, 0.1 CaCl2), 1 MgCl2 (pH 7.2). 28 mg/mL of amphotericin B was freshly prepared with DMSO on the day of experiment, and then final concentration of 0.1 mg/mL of that was prepared with intracellular fluid.
Population patch clamp (PPC) plate was used in IWB experiment. The entire detection process was automatically carried out by the instrument. […]
The record of data and the export of current amplitude measurement were carried out by IWB software (version 2.5.3, Molecular Devices Corporation. Union City, CA). No statistics was recorded for wells with sealing impedance lower than 20 MΩ. […] TRPA1 current amplitude was measured at ±100 mV. […] The dose-effect curve of compounds and IC50 were fitted and calculated by GraphPad Prism 5.02 (GraphPad Software, San Diego, CA).

[5] = target: T2, TRPM8 (Homo sapiens, UniProt Q7Z2W7); test: Manual patch clamp detection on TRPM8 channel; assay type: cell-based; conditions: 20.00 μM, positive compound
T2 construct: expressed in transfected cells
T2 sequence (Q7Z2W7 whole entry, species assumed): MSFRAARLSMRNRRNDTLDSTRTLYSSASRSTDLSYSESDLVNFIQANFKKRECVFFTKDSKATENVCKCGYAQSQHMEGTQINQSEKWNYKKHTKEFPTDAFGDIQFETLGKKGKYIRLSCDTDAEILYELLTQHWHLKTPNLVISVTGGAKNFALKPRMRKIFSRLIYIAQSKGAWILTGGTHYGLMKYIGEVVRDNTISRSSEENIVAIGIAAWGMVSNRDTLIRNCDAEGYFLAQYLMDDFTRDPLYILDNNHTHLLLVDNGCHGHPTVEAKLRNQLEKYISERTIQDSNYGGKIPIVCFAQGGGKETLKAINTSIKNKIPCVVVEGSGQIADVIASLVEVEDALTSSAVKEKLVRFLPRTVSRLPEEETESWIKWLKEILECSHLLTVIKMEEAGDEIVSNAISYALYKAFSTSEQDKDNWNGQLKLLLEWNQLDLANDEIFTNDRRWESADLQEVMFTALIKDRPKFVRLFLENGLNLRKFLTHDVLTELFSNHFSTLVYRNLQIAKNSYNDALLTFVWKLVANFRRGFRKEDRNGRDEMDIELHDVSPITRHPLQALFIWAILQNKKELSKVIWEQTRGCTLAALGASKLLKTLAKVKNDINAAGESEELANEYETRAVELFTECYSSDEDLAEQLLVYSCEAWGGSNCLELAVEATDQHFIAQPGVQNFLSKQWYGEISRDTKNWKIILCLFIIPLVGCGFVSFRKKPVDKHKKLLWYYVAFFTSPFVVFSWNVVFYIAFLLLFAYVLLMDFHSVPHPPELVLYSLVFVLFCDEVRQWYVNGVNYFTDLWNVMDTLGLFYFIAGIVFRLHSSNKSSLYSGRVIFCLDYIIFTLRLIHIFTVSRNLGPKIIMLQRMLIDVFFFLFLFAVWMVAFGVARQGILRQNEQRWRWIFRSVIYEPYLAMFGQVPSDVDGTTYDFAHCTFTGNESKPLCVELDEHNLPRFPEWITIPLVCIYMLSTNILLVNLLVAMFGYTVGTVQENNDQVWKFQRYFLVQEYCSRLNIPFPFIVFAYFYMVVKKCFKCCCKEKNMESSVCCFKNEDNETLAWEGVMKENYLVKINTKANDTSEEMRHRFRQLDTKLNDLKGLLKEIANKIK
Procedure: (§1) TRPM8 cells were cultured in a cell culture dish with a diameter of 35 mm, placed in an incubator in 5% CO2 at 37° C., and passaged at a ratio of 1:5 every 48 hours. The formula of medium was 90% DMEM (Invitrogen), 10% fetal bovine serum (Gibco), 2 mM L-glutamine, 50 μg/mL Hygromycin B (Invitrogen) and 5 μg/mL Blasticidine HCl (Invitrogen). Before electrophysiological patch clamp experiment, the cell culture medium was replaced with medium containing 1 μg/mL doxycycline for at least 16 hours to induce TRPM8 expression.
(§2) On the day of the experiment, the cell culture medium was aspirated, the cell were rinsed once with extracellular fluid, and then 0.25% Trypsin-EDTA (Invitrogen) solution was added, and digested at room temperature for 1-2 minutes. The digestion solution was aspirated, the cell were resuspended with extracellular fluid, and transferred to the experimental dish for electrophysiological recording for further experiment.
Preparation of menthol: 100.00 mM of DMSO stock solution of menthol was added to the extracellular solution, diluting 1000-fold to 100.00 μM of menthol solution.
Preparation of AMTB: 5 μL of DMSO stock solution (20.00 mM) of AMTB was added to 4995 μL of menthol solution (100.00 uM), diluting 1000-fold to obtain the final concentration of 20.00 μM AMTB to be tested.
Preparation of IC-1: 20.00 mM or 10.00 mM of stock solution of IC-1 was taken and added to the agonist solution of the corresponding channel, diluting 1000 or 2000-fold to the final concentration of 10.00 μM of […] solution to be tested.
(§3) HEK293 cells stably expressing TRP channels, the corresponding agonist-induced channel current was recorded by whole-cell patch clamp technique at room temperature. […] Clamp voltages and data recording were controlled and recorded by a computer using pClamp 11 software with the sampling frequency of 10 kHz and the filtering frequency of 2 kHz. […] After the current was evoked for more than 40 s and no attenuation was determined, the dosing process started. […]

[6] = target: T3, TRPV4 (Homo sapiens, UniProt Q9HBA0); test: Manual patch clamp detection on TRPV4 channel; assay type: cell-based; conditions: 40.00 μM, positive compound
T3 construct: expressed in transfected cells
T3 sequence (Q9HBA0 whole entry, species assumed): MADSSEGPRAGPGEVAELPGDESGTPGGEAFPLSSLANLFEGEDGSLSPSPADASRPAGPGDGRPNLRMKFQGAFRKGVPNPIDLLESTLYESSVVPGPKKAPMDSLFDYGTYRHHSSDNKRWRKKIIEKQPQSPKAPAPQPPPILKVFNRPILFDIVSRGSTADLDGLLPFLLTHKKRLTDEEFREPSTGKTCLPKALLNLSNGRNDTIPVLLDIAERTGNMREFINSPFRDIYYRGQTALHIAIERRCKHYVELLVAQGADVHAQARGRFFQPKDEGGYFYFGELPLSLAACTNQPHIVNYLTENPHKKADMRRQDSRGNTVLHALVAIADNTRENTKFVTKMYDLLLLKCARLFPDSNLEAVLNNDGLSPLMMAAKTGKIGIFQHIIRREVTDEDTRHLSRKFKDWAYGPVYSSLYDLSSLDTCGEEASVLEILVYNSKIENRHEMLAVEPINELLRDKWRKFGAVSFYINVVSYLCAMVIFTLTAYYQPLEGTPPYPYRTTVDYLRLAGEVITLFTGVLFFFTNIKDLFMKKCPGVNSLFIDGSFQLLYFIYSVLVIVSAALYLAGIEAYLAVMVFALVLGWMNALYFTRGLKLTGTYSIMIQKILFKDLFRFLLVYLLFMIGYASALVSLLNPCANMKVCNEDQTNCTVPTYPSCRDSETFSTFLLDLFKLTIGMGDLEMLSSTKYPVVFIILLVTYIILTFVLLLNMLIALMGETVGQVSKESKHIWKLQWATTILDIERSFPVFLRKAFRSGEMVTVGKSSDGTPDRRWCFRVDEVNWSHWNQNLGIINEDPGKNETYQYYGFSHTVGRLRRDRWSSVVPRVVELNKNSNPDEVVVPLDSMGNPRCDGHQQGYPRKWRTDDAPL
Procedure: as §1, with “TRPV4” for “TRPM8”, “the expression of TRPV4.” for “TRPM8 expression.”
as §2, with “experiment. […]” for “experiment.”
as §3

[7] = target: T4, TRPV1 (Homo sapiens, UniProt Q8NER1); test: Manual patch clamp detection on TRPV1 channel; assay type: cell-based; conditions: HEK293, Capsaicin-induced current
T4 construct: expressed in transfected cells
T4 sequence (Q8NER1 whole entry, species assumed): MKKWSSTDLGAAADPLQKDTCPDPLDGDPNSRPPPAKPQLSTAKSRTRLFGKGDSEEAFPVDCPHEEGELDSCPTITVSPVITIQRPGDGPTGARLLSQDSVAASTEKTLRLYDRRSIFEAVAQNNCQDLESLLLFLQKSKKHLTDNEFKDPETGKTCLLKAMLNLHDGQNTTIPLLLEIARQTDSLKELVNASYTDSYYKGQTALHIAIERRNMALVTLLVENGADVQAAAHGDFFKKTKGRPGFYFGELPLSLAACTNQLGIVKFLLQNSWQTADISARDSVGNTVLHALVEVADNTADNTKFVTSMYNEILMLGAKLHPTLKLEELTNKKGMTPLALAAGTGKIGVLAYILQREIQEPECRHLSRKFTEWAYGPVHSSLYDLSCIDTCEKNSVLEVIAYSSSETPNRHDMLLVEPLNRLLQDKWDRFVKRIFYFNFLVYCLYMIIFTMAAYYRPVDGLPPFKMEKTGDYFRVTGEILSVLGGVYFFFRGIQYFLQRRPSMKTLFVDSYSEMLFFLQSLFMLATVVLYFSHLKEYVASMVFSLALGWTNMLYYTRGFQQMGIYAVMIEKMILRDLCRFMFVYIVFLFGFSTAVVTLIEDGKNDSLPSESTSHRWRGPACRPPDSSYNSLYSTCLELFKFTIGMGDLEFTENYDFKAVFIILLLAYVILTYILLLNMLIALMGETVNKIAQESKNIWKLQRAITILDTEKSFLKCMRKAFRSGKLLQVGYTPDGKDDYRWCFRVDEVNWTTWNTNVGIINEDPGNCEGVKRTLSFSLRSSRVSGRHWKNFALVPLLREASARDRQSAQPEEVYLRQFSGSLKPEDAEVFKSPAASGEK
Procedure: TRPV1 cells were cultured in a cell culture dish with a diameter of 35 mm, placed in a 37° C., 5% CO2 incubator, and passaged at a ratio of 1:5 every 48 hours. Medium formula: 90% DMEM (Invitrogen), 10% Fetal bovine serum (Gibco). 2 mM L-glutamine, 50 μg/mL Hygromycin B (Invitrogen) and 5 μg/mL Blasticidine HCl (Invitrogen). Before electrophysiological patch clamp experiments, the cell culture medium was replaced with medium containing 1 μg/mL Doxycycline for at least 16 hours to induce the expression of TRPV1.
as §2, with “experiment. […]” for “experiment.”
as §3

CN1[C@H]2C[C@H](OC(=O)[C@H](CO)c3ccccc3)C[C@@H]1[C@@H](O)C2 [anisodamine, reference compound]
frequency of writhing response within 30 min [1]: 27 times

NCC[C@H](Oc1cccc2ccoc12)c1cccs1 [IC-23, (S)-3-(benzofuran-7-yloxy)-3-(thiophen-2-yl)propan-1-amine]
analgesic activity compared with the positive controls gabapentin and duloxetine [2]: significantly stronger than that of 100 mg/kg of gabapentin | analgesic effect (MPE %) compared with the saline control group ([2]; within 60 min): very potent analgesic effect

NCC1(CC(=O)O)CCCCC1 [Gabapentin, reference compound]
PWT [3]: 6.352 ± 1.897 g

CNCC[C@H](Oc1cccc2c1CCC2)c1ccccc1 [Compound C1]
IC50 [4]: 20 to 50 µM

Cc1cccc(COc2ccccc2C(=O)N(CCCN)Cc2cccs2)c1 [AMTB, reference compound]
Inhibition % of TRPM8 current [5]: over 90%

N.N.N.N.N.N.N.N.N.N.N.N.N.N.[Cl-].[Cl-].[Cl-].[Cl-].[Cl-].[Cl-].[O-2].[O-2].[Ru+3].[Ru+3].[Ru+4] [RR, Ruthenium Red, reference compound]
Inhibition % of TRPV4 current [6]: over 90%

Oc1cc2c(cc1O)CN(C(=S)NCCc1ccc(Cl)cc1)CCC2 [Capsazepine, reference compound]
inhibition at 10 µM [7]: > 90%

Source: patent publication US12492195B2, “Preparation method for and crystal form of 3-aryloxy-3-five-membered heteroaryl-propylamine compound” (Zhangzhou Pien Tze Huang Pharmaceutical Co., Ltd., priority 2020, dated 2025)
